Data as given in patent US9981964B2 (Agency for Science, Technology and Research, priority 2013, dated 2018).

Test system: HEK293-STF3A cells
Experiment: STF3A assay (STF luciferase reporter in Wnt3A-expressing HEK293 cells)
Type: cell-based
Details: Homo sapiens, 24 h, 1 day of treatment
From the text: HEK293-STF cell line was modified from Human embryonic kidney cell line HEK293 transfected with the STF reporter. HEK293-STF3A cell line was further modified from HEK293-STF cell line to express Wnt3A. This cell line was used to identify compounds that regulate either early or late signaling components of the Wnt pathway. These two cell lines were obtained from David Virshup's laboratory, Duke-NUS. L-Wnt3A (ATCC, #CRL-2647) cell line was used for providing Wnt3A conditioned media. The three cell lines were grown in DMEM with 10% FBS incubated in 37° C. with 5% CO2.
2×10^4 HEK293-STF3A cells in 75 μl culture media were seeded in each well of white 96 well plates (Greiner #655098) and incubated overnight at 37° C. 25 μl serially diluted compound was added to the cells to give final concentration of 50 μM to 1.5 nM. After 1 day of treatment, 100 μl of Steady-Glo Luciferase Assay reagent (#E2520, Promega) was added to each well and incubated for 10 minutes at room temperature. Luminescence was measured using Tecan Safire2 plate reader.

SMILES | IC50
Cc1nc(-c2cccnc2)ccc1NC(=O)CN1CCCC2=C1C(=O)N(C1CC1)C2=O [Compound 123, 2-(6-cyclopropyl-5,7-dioxo-2,3,4,5,6,7-hexahydro-1H-pyrrolo[3,4-b]pyridin-1-yl)-N-(6-methyl-2,3′-bipyridin-5-yl)acetamide] | > 10000 nM
Cc1cncc(-c2ccc(NC(=O)CN3CCCC4=C3C(=O)N(C)C4=O)nn2)c1 [Compound 41, 2-(6-methyl-5,7-dioxo-2,3,4,5,6,7-hexahydro-1H-pyrrolo[3,4-b]pyridin-1-yl)-N-(6-(5-methylpyridin-3-yl)pyridazin-3-yl)acetamide] | < 100 nM
CN1C(=O)C2=C(C1=O)N(CC(=O)Nc1ccc(-c3ccccc3)nn1)CCC2 [Compound 3, 2-(6-methyl-5,7-dioxo-2,3,4,5,6,7-hexahydro-1H-pyrrolo[3,4-b]pyridin-1-yl)-N-(6-phenylpyridazin-3-yl)acetamide] | < 100 nM
CN1C(=O)C2=C(C1=O)N(CC(=O)Nc1ccc(-c3ccncc3)cn1)CCC2 [Compound 88, N-([3,4′-bipyridin]-6-yl)-2-(6-methyl-5,7-dioxo-2,3,4,5,6,7-hexahydro-1H-pyrrolo[3,4-b]pyridin-1-yl)acetamide] | < 1000 nM
CC(C(=O)Nc1ccc(-c2cccnc2F)cn1)N1CCCC2=C1C(=O)N(C)C2=O (stereo not shown) [Compound 97, N-(2′-fluoro-3,3′-bipyridin-6-yl)-2-(6-methyl-5,7-dioxo-2,3,4,5,6,7-hexahydro-1H-pyrrolo[3,4-b]pyridin-1-yl)propanamide] | < 100 nM
CC(C(=O)Nc1cnc(-c2ccccc2)cn1)N1CCCC2=C1C(=O)N(C)C2=O (stereo not shown) [Compound 19, 2-(6-methyl-5,7-dioxo-2,3,4,5,6,7-hexahydro-1H-pyrrolo[3,4-b]pyridin-1-yl)-N-(5-phenylpyrazin-2-yl)propanamide] | < 100 nM
Cc1ccnc(-c2ccc(NC(=O)CN3CCCC4=C3C(=O)N(C3CC3)C4=O)nc2)c1 [Compound 150, 2-(6-cyclopropyl-5,7-dioxo-2,3,4,5,6,7-hexahydro-1H-pyrrolo[3,4-b]pyridin-1-yl)-N-(4-methyl-[2,3′-bipyridin]-6′-yl)acetamide] | < 100 nM
Cc1ccc(-c2ccc(NC(=O)CN3CCCC4=C3C(=O)N(C3CC3)C4=O)nc2)cn1 [Compound 85, 2-(6-cyclopropyl-5,7-dioxo-2,3,4,5,6,7-hexahydro-1H-pyrrolo[3,4-b]pyridin-1-yl)-N-(6′-methyl-[3,3′-bipyridin]-6-yl)acetamide] | < 100 nM
O=C(CN1CCCC2=C1C(=O)N(C1CC1)C2=O)Nc1ccc(-c2cncnc2)cc1 [Compound 90, 2-(6-cyclopropyl-5,7-dioxo-2,3,4,5,6,7-hexahydro-1H-pyrrolo[3,4-b]pyridin-1-yl)-N-(4-(pyrimidin-5-yl)phenyl)acetamide] | < 100 nM
CN1C(=O)C2=C(C1=O)N(CC(=O)Nc1ccc(-c3ccc(F)cc3)nc1)CCC2 [Compound 152, N-(6-(4-fluorophenyl)pyridin-3-yl)-2-(6-methyl-5,7-dioxo-2,3,4,5,6,7-hexahydro-1H-pyrrolo[3,4-b]pyridin-1-yl)acetamide] | < 100 nM
CC(C(=O)Nc1ccc(-c2cccnc2)nn1)N1CCCC2=C1C(=O)N(C)C2=O (stereo not shown) [Compound 60, 2-(6-methyl-5,7-dioxo-2,3,4,5,6,7-hexahydro-1H-pyrrolo[3,4-b]pyridin-1-yl)-N-(6-(pyridin-3-yl)pyridazin-3-yl)propanamide] | < 100 nM
CN1C(=O)C2=C(C1=O)N(CC(=O)Nc1ccc(-c3ccc(C(F)(F)F)nc3)nn1)CCC2 [Compound 45, 2-(6-methyl-5,7-dioxo-2,3,4,5,6,7-hexahydro-1H-pyrrolo[3,4-b]pyridin-1-yl)-N-(6-(6-(trifluoromethyl)pyridin-3-yl)pyridazin-3-yl)acetamide] | < 5000 nM
CN1C(=O)C2=C(C1=O)N(CC(=O)Nc1ccc(-c3ccccc3)cc1F)CCC2 [Compound 83, N-(3-fluorobiphenyl-4-yl)-2-(6-methyl-5,7-dioxo-2,3,4,5,6,7-hexahydro-1H-pyrrolo[3,4-b]pyridin-1-yl)acetamide] | < 100 nM
